Laboratory results as given in patent publication EP0979818A1, “BENZOIC ACID COMPOUNDS AND MEDICINAL USE THEREOF” (YOSHITOMI PHARMACEUTICAL INDUSTRIES, LTD., priority 1997, dated 1998).
Where two headings read alike, the source gives them in different places.

Key:
[1] = molecular target: isolated guinea pig ascending colon (Cavia porcellus, UniProt O70528); assay: contraction of the isolated guinea pig ascending colon; assay type: cell-based
Procedure: Male Hartley guinea pig was killed by a blow, ascending colon was taken from it and longitudinal muscle was separated. About 3 cm longitudinal muscle segment was suspended in 10 ml of a Tyrode solution with the load of 1 g. Tyrode solution contained methysergide (1 µM) and granisetron (1 µM) to inhibit responses mediated by 5-HT1, 5-HT2 and 5-HT3 receptors. Tyrode solution was maintained at 37°C and ventilated with a mixed gas of O2 (95%) and CO2 (5%). The contraction was isotonically measured via isotonic transducer. After an equilibrium period of about 30 minutes, the contraction by methacholine (30 µM) was measured two times at 15 minute intervals. Twenty minutes later, Y-36912 was added into the bath and the contraction was measured in the presence of a solvent or 1-methyl-1H-indole-3-carboxylic acid · 1-(2-methylsulfonylaminoethyl)-pyperidin-4-ylmethyl ester (hereinafter to be referred to as GR113808, 10nM), which is 5-HT4 receptor antagonist. The time of pretreatment with the solvent or GR113808 was 10 minutes. To avoid tachyphylaxis, the contraction induced by one concentration per preparation was measured. The contraction in the presence of a solvent or GR113803 was measured using a preparation from the same animal. The contraction effect of Y-36912 was measured as a percentage of responses to the second contraction by methacholine. […]

[2] = tested on: dogs; assay: promotion of postprandial gastrointestinal motility in dogs without anesthesia; assay type: in vivo; conditions: for Difference of motility index (g·min) Colon / Difference of motility index (g·min) Stomach: Mean ± S.E.; for minimal effective dose: Canis lupus familiaris, iv
Procedure: According to the method of Ito et al. [Journal of Smooth Muscle Research, vol. 13, pp. 33-43 (1976)], male and female adult mongrel dogs were subjected to laparotomy under pentobarbital anesthesia, and force transducer was sutured to the serous membrane of various sites of gastrointestinal tract in the direction of circular muscle. After about two weeks' recovery period, postprandial gastrointestinal motility was measured in vigilance. The results are shown in Table 3 as the difference in motility index (g·min) between before and after administration of Y-36912. Y-36912 was administered intravenously.

[3] = tested on: SD rats; assay: toxicity testing, repeated administration for 10 days in rats; assay type: in vivo; conditions: female and male SD rats, repeated 30 mg/kg for 10 days
[4] = tested on: guinea pig; assay: promotion of transit in large intestine in guinea pig; assay type: in vivo; conditions: guinea pigs; for Ratio of transit in large intestine (%): Evans blue, 1 hour, Mean ± S.E.; for Promotion (%) of transit in large intestine: versus vehicle
Procedure: Male Hartley guinea pigs were subjected to laparotomy under ether anesthesia, and a silicone tube was inserted into the beginning of ascending colon and fixed there. The other end was passed under the skin to be exposed from the back and sutured. At day 5 postoperation, Y-36912 was administered orally and Evans blue solution was injected into the colon through the silicon tube. One hour later, the large intestine was removed, and the entire length of the large intestine and the length of the transit of the Evans blue solution were measured. Evans blue transit ratio relative to the entire length of the large intestine (100 %) was calculated.

[5] = tested on: SD rats; assay: toxicity testing, single oral dose in rats; assay type: in vivo; conditions: four female SD rats, 750 mg/kg
Procedure: There was no death when four female SD rats were administered orally with Y-36912 at a dose of 750 mg/kg.

[6] = tested on: mice; assay: stimulation of defecation in mice; assay type: in vivo; conditions: for Number (of feces) / Wet weight (of feces): 2 hours, Mean ± S.E.; for Promotion(%) of number of feces / Promotion(%) of wet weight of feces: versus vehicle
Procedure: Male ICR mice were subcutaneously administered with Y-36912 after adaptation to experimental surroundings for thirty minutes. The number and wet weight of feces excreted in 2 hours from immediately after administration were measured.

[7] = evaluation of bioavailability in rats; assay type: in vivo; conditions: rat, po; female SD rats, 3 mg/kg i.v. and 30 mg/kg p.o., from plasma AUC
Procedure: Female SD rats (4 per group) were administered with 3 mg/kg (i.v.) and 30 mg/kg (p.o.) of Y-36912. The blood was taken with the passage of time, and the concentration of the drug in plasma was measured with high performance liquid chromatography. […] In the formula, AUC means area under the plasma concentration-time curve. (AUC by oral administration)/(AUC by intravenous administration)X(Dose of intravenous administration)/(Dose of oral administration)X 100(%) [formula]

[8] = molecular target: T1, 5-HT3 receptor (Rattus norvegicus, UniProt P35563); assay: 5-HT3 receptor binding test; conditions: rat cerebral cortex crude synapse membrane, [3H]granisetron 1.0 nM, 25°C; value marked * is IC50, not Ki; read-out: Affinity for receptor 5-HT3 (* shows IC50)
T1 construct: Crude synapse membrane sample was prepared from rat cerebral cortex; from tissue; host or cells: rat cerebral cortex, crude synaptic membranes
T1 sequence (P35563 24-483): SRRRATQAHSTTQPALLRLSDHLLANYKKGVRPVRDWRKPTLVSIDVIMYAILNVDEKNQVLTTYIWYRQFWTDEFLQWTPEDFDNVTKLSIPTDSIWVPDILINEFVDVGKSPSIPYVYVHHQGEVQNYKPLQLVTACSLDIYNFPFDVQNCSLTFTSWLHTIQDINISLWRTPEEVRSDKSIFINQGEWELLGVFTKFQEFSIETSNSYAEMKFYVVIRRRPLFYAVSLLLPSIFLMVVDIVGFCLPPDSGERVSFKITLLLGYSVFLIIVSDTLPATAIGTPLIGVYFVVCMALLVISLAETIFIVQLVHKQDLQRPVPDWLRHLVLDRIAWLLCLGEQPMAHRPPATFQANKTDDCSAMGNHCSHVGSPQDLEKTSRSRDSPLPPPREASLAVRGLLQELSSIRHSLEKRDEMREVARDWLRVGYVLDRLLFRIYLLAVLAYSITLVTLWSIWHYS
Procedure: According to the method of Nelson and Thomas [Biochemical Pharmacology, vol. 38, pp. 1693-1695 (1989)], a 5-HT3 receptor binding test was run using, as a tracer ligand, endo-1-methyl-N-(9-methyl-9-azabicyclo[3.3.1]non-3-yl)-1H-indazole-3-carboxamide substituted by tritium (hereinafter to be referred to as [^3H]granisetron). Crude synapse membrane sample was prepared from rat cerebral cortex, suspended in 50 mM HEPES buffer (pH 7.4) and used for testing. Y-36912 having several different concentrations and [^3H]granisetron (final concentration 1.0 nM) were added to this suspension and allowed to react at 25°C. Thirty minutes later, the reaction mixture was filtered by suction with cell harvester. The filter was washed with 50 mM Tris buffer (pH 7.4), and the radioactivity on the filter was counted using liquid scintillation counter or β-plate. The non-specific binding was determined in the presence of 1 µM tropisetron. The concentration of Y-36912 necessary for 50% inhibition (IC50) was determined from graph and converted to binding inhibition constant (Ki value).

[9] = molecular target: T2, 5-HT4 receptor (Cavia porcellus, UniProt O70528); assay: 5-HT4 receptor binding test; conditions: guinea pig striatum crude synapse membrane, [3H]GR113808 0.1 nM, 37°C; read-out: Affinity for receptor (Ki value, nM) 5-HT4
T2 construct: Crude synapse membrane sample was prepared from guinea pig striatum; from tissue; host or cells: guinea pig striatum, crude synaptic membranes
Procedure: According to the method of C.J. Grossman et al. [British Journal of Pharmacology, vol. 109, pp. 618-624 (1993)1, a 5-HT4 receptor binding test was run using, as a tracer ligand, 1-methyl-1H-indole-3-carboxylic acid · 1-(2-methylsulfonylaminoethyl)-piperidin-4-ylmethyl ester substituted by tritium (hereinafter to be referred to as [^3H]GR113808). Crude synapse membrane sample was prepared from guinea pig striatum, suspended in 50 mM HEPES buffer (pH 7.4) and used for testing. Y-36912 having several different concentrations and [^3H]GR113808 (final concentration 0.1 nM) were added to this suspension and allowed to react at 37°C. Thirty minutes later, the reaction mixture was filtered by suction with cell harvester. The filter was washed with 50 mM HEPES buffer, and the radioactivity on the filter was counted by liquid scintillation counter. The non-specific binding was determined in the presence of 1µM GR113808. The concentration of Y-36912 necessary for 50% inhibition (IC50) was determined from graph and convened to binding inhibition constant (Ki value).

[10] = measurement of absorption by small intestine in rat; assay type: in vivo; conditions: small intestine loop, 5 mg/kg, male SD rats, intestinal loop, 5 mg/10 ml in 5% glucose, 10 ml/kg, read-out: absorption (absorption ratio by small intestine loop)
Procedure: Male SD rats (3 per group) fasted overnight were subjected to laparotomy under ether anesthesia, and the upper part of small intestine was ligated to form a loop (15-20 cm in length). The drug was dissolved in 5% glucose to the drug concentration of 5 mg/10 ml, and 10 ml/kg thereof was injected into the loop. At 2 hours from the drug injection, the loop was removed, washed with 100 ml of 0.1 N hydrochloric acid-methanol (3:7), and the drug concentration was determined by high performance liquid chromatography. The absorption ratio was calculated according to the following formula. The absorption of Y-36912 was 60.5±13.7 % (Injected amount of drug (mg) - drug concentration in loop (mg/ml) x 100 (ml))/(Injected amount of drug (mg))x 100(%) [formula]

[11] = tested on: rats; assay: promotion of gastric emptying in rats; assay type: in vivo; conditions: for Number of pellets (remaining in stomach): female Wistar rats, 1 hour after pellets, Mean ± S.E.; for Promotion (%) of gastric emptying: versus vehicle
Description: Barium pellets (ca. 1 mm diameter) coated with polystyrene was intragastrically administered to female Wistar rats. One hour later, stomach was removed, and the remaining pellets were counted. Y-36912 was orally administered one hour before administration of the pellets.

isolated guinea pig ascending colon, sequence (O70528 whole entry): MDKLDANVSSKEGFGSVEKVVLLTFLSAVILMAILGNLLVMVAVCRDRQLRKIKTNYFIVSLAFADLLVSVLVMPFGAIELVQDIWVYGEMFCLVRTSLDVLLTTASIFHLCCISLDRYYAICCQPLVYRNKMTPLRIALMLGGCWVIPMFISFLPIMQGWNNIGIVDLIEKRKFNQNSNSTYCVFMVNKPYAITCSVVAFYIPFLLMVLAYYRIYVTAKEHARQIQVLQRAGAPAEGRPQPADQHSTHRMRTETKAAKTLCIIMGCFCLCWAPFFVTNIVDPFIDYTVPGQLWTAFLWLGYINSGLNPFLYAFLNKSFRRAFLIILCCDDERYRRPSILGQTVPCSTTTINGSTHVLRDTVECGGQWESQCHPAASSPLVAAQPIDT
T2 sequence (O70528 whole entry): as above

SMILES: Cn1cc(C(=O)OCC2CCN(CCNS(C)(=O)=O)CC2)c2ccccc21 [GR113808, 1-methyl-1H-indole-3-carboxylic acid · 1-(2-methylsulfonylaminoethyl)-pyperidin-4-ylmethyl ester, reference compound]
- pKB, antagonism of GR113808 to contraction of Y-36912 ([1]; GR113808 10 nM, 10 minutes pretreatment, agonist Y-36912): 8.8

SMILES: COc1cc(N)c(Cl)cc1C(=O)NCC1CCN(CCCS(=O)(=O)Cc2ccccc2)CC1 [Y-36912, 4-amino-5-chloro-2-methoxy-N-((1-(3-benzylsulfonylpropyl)piperidin-4-yl)methyl)benzamide]
- Difference of motility index (g·min) Colon ([2]; 0.01 mg/kg i.v.): 27.1 ± 6.8 g·min
- Difference of motility index (g·min) Stomach ([2]; 0.01 mg/kg i.v.): 41.3 ± 35.4 g·min
- Difference of motility index (g·min) Colon ([2]; 0.03 mg/kg i.v.): 28.3 ± 8.5 g·min
- Difference of motility index (g·min) Stomach ([2]; 0.03 mg/kg i.v.): 65.1 ± 38.1 g·min
- Difference of motility index (g·min) Colon ([2]; 0.1 mg/kg i.v.): 58.2 ± 11.9 g·min
- Difference of motility index (g·min) Stomach ([2]; 0.1 mg/kg i.v.): 60.5 ± 18.1 g·min
- minimal effective dose ([2]; read-out: dose that increased colonic (lower gastrointestinal) motility): 0.1 mg/kg
- minimal effective dose ([2]; read-out: dose that increased gastric (upper gastrointestinal) motility): ≥ 0.03 mg/kg
- death [3]: no animal died
- Ratio of transit in large intestine (%) ([4]; 0.1 mg/kg p.o.): 57.0 ± 7.0%
- Promotion (%) of transit in large intestine ([4]; 0.1 mg/kg p.o.): 9%
- Ratio of transit in large intestine (%) ([4]; 0.3 mg/kg p.o.): 70.9 ± 7.9%
- Promotion (%) of transit in large intestine ([4]; 0.3 mg/kg p.o.): 35%
- Ratio of transit in large intestine (%) ([4]; 1 mg/kg p.o.): 77.2 ± 6.4 %
- Promotion (%) of transit in large intestine ([4]; 1 mg/kg p.o.): 47%
- Ratio of transit in large intestine (%) ([4]; 3 mg/kg p.o.): 80.1 ± 5.8 %
- Promotion (%) of transit in large intestine ([4]; 3 mg/kg p.o.): 53%
- minimal effective dose ([4]; Cavia porcellus, po, 1 h, p.o., read-out: dose that significantly accelerated transit in large intestine): ≥ 1 mg/kg
- death [5]: no death
- Number (of feces) ([6]; 0.03 mg/kg s.c): 5.4 ± 0.7
- Wet weight (of feces) ([6]; 0.03 mg/kg s.c): 78.2 ± 8.6
- Promotion(%) of number of feces ([6]; 0.03 mg/kg s.c): 59%
- Promotion(%) of wet weight of feces ([6]; 0.03 mg/kg s.c): 38%
- Number (of feces) ([6]; 0.1 mg/kg s.c): 6.5 ± 0.8
- Wet weight (of feces) ([6]; 0.1 mg/kg s.c): 95.7 ± 10.6
- Promotion(%) of number of feces ([6]; 0.1 mg/kg s.c): 91%
- Promotion(%) of wet weight of feces ([6]; 0.1 mg/kg s.c): 69%
- Number (of feces) ([6]; 0.3 mg/kg s.c): 6.2 ± 0.8
- Wet weight (of feces) ([6]; 0.3 mg/kg s.c): 94.7 ± 10.3
- Promotion(%) of number of feces ([6]; 0.3 mg/kg s.c): 82%
- Promotion(%) of wet weight of feces ([6]; 0.3 mg/kg s.c): 68%
- Number (of feces) ([6]; 1 mg/kg s.c): 5.4 ± 0.5
- Wet weight (of feces) ([6]; 1 mg/kg s.c): 97.7 ± 12.5
- Promotion(%) of number of feces ([6]; 1 mg/kg s.c): 59%
- Promotion(%) of wet weight of feces ([6]; 1 mg/kg s.c): 73%
- minimal effective dose ([6]; Mus musculus, sc, 2 h, s.c., read-out: dose showing significant promotion of defecation): ≥ 0.1 mg/kg
- bioavailability [7]: 85.2%
- IC50 [8]: > 1000 nM
- Ki [9]: 1.5 nM
- Fa at 2 h [10]: 60.5 ± 13.7%
- Number of pellets (remaining in stomach) ([11]; 0.1 mg/kg p.o.): 21.1 ± 2.8
- Promotion (%) of gastric emptying ([11]; 0.1 mg/kg p.o., rats): 25%
- Number of pellets (remaining in stomach) ([11]; 0.3 mg/kg p.o.): 18.8 ± 3.0
- Promotion (%) of gastric emptying ([11]; 0.3 mg/kg p.o., rats): 33%
- Number of pellets (remaining in stomach) ([11]; 1 mg/kg p.o.): 19.5 ± 3.1
- Promotion (%) of gastric emptying ([11]; 1 mg/kg p.o., rats): 31%
- Number of pellets (remaining in stomach) ([11]; 3 mg/kg p.o.): 13.4 ± 1.8
- Promotion (%) of gastric emptying ([11]; 3 mg/kg p.o., rats): 52%
- effect on gastric emptying ([11]; doses of 0.3 mg/kg and 3 mg/kg p.o., rats): significantly accelerated gastric emptying
- EC50 ([1]; longitudinal muscle, methysergide 1 µM and granisetron 1 µM present, relative to methacholine 30 µM contraction, read-out: Contraction effect on the isolated ascending colon (EC50 value)): 10.8 nM
